Earlier results on one substance are cited in patent US6841363B2, “Preparation of capped mRNA” (Emory University, priority 2000, dated 2005).

Broadly, the Kd is the equilibrium constant for the complex coming apart.

For data set [1] the following is noted: intrinsic fluorescence, m7GTP; W56Y compared with wild-type, 'shown therein' (Hsu et al. 2000 / U.S. Pat. No. 6,232,442).
Data set [2] deals with m7GTP. The following applies: previous study (U.S. Pat. No. 6,232,442); human eIF4E and mutants; read-out: Kd (affinity for m7GTP).

Turning to “wild-type: abundant form of human eIF4E (eukaryotic initiation factor 4E) previously isolated and characterized”, the Kd in data set [1] was 318 nM; in data set [2] it was 1200 nM.
